The record followed here is ChEMBL document CHEMBL1201862, “PubChem BioAssay data set” (2004).

SMILES strings stand for the structures.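 Where inhibition never reached the appropriate level, the endpoint shown equals the highest concentration tested. Otherwise, values were interpolated linearly from a five-concentration, 48-hour dose response in 96-well plates. GI50 marks 50% less growth.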 Activity calls are given as the source filed them. Rule as the data show it: active = GI50 up to about 1.1 µM and inactive = higher.

Among the test systems are PC-3; IGROV-1; MDA-MB-435; NCI/ADR-RES; OVCAR-8; EKVX; M14; SNB-19; CCRF-CEM; MOLT-4; BT-549; K562; SF-268; ACHN; HOP-92; HCT-15; HL-60; DU-145; RXF 393; NCI-H522.
Holding throughout (test): inhibition of tumour cell growth, NCI panel, 48 h

Regarding `O=c1[nH]c(=O)n2n1C1C=CC2CC1`, the GI50 in the experiment on PC-3, in the experiment on IGROV-1, in the experiment with MDA-MB-435, in the experiment with NCI/ADR-RES, in the experiment on OVCAR-8 and with EKVX was > 100 µM (inactive) in each case. Further, the GI50 in the experiment on M14, in the experiment on SNB-19, with CCRF-CEM, with MOLT-4, in the experiment on BT-549 and in the experiment with K562 was > 100 µM (inactive) throughout. Further, the GI50 in the experiment on SF-268 is > 100 µM (inactive); with ACHN, > 100 µM (inactive); in the experiment with HOP-92, > 100 µM (inactive); in the experiment with HCT-15, above 100 µM; in the experiment with HL-60 it was > 100 µM (inactive); in the experiment with DU-145, > 100 µM (inactive).

With `Cc1ccc(C2c3c(n(C)c(=O)n(C)c3=O)OC(N(C)C)(N(C)C)C2(F)F)cc1` (stereo not drawn), the GI50 in the experiment on PC-3, in the experiment with MDA-MB-435, in the experiment with NCI/ADR-RES, in the experiment with EKVX, in the experiment on M14 and with SNB-19 was > 100 µM (inactive) in each case. For the same compound, the GI50 in the experiment on RXF 393, in the experiment with CCRF-CEM, with MOLT-4, in the experiment on BT-549, in the experiment with K562 and in the experiment with SF-268 was > 100 µM (inactive) throughout. Also, the GI50 in the experiment on ACHN is > 100 µM (inactive); in the experiment with HOP-92, > 100 µM (inactive); in the experiment on HCT-15, above 100 µM; in the experiment on DU-145 it was > 100 µM (inactive).

For the compound `CCCCCC/C=C/C#CCCCCCCCC(=O)O`, the GI50 in the experiment on PC-3, with IGROV-1, in the experiment on MDA-MB-435, in the experiment on NCI/ADR-RES, in the experiment with OVCAR-8 and in the experiment with EKVX was > 100 µM (inactive) in each case. The GI50 in the experiment on M14 was > 100 µM (inactive); with NCI-H522 it was > 100 µM (inactive); in the experiment on SNB-19, > 100 µM (inactive); in the experiment with CCRF-CEM it was 82.4 µM (inactive); with MOLT-4, 78.2 µM (inactive); in the experiment with BT-549, > 100 µM (inactive). For the same compound, the GI50 in the experiment with K562 is > 100 µM (inactive); in the experiment on SF-268, > 100 µM (inactive); in the experiment with ACHN it was > 100 µM (inactive); in the experiment with HOP-92, > 100 µM (inactive); in the experiment with HCT-15 it was above 100 µM; in the experiment with HL-60, > 100 µM (inactive). Moreover, the GI50 with DU-145 was > 100 µM (inactive).

Regarding `O=S(=O)(c1ccccc1)N1CCN(S(=O)(=O)c2ccccc2)c2ccccc21`, the GI50 in the experiment with PC-3 is > 100 µM (inactive); with IGROV-1 it was > 100 µM (inactive); in the experiment with MDA-MB-435, > 100 µM (inactive); with NCI/ADR-RES, 95.7 µM (inactive); in the experiment with OVCAR-8, > 100 µM (inactive); in the experiment on EKVX it was 31 µM (inactive). The GI50 with M14 is 96.6 µM (inactive); in the experiment on NCI-H522 it was 42.5 µM (inactive); in the experiment on SNB-19 it was > 100 µM (inactive); with RXF 393 it was > 100 µM (inactive); in the experiment on BT-549, > 100 µM (inactive); in the experiment with K562 it was 96.4 µM (inactive). The GI50 is > 100 µM (inactive) with SF-268; > 100 µM (inactive) with ACHN; > 100 µM (inactive) in the experiment on HOP-92; 92.7 µM with HCT-15; > 100 µM (inactive) in the experiment on DU-145.

Consider `S=C1Nc2cnc3ccccc3c2SC1c1ccccc1` (stereo not drawn), for which the GI50 is > 100 µM (inactive) with PC-3; > 100 µM (inactive) with IGROV-1; 83.4 µM (inactive) in the experiment on MDA-MB-435; > 100 µM (inactive) in the experiment with NCI/ADR-RES; > 100 µM (inactive) in the experiment with OVCAR-8; > 100 µM (inactive) in the experiment with EKVX. The GI50 with M14 is > 100 µM (inactive); in the experiment with NCI-H522, > 100 µM (inactive); in the experiment on SNB-19, > 100 µM (inactive); in the experiment on RXF 393 it was 13 µM (inactive); with MOLT-4 it was > 100 µM (inactive); with BT-549, > 100 µM (inactive). Further, the GI50 in the experiment on K562 was > 100 µM (inactive); in the experiment with SF-268, > 100 µM (inactive); in the experiment with ACHN, > 100 µM (inactive); with HCT-15 it was above 100 µM; in the experiment with HL-60, > 100 µM (inactive); in the experiment on DU-145, > 100 µM (inactive).

As to `N#Cc1c(Nc2nc3ccccc3s2)c2ccccc2n2c1nc1ccccc12`, the GI50 in the experiment on PC-3 was > 100 µM (inactive); with IGROV-1, > 100 µM (inactive); in the experiment with MDA-MB-435 it was > 100 µM (inactive); in the experiment with NCI/ADR-RES, 72.4 µM (inactive); with OVCAR-8, > 100 µM (inactive); in the experiment on EKVX, > 100 µM (inactive). Further, the GI50 in the experiment with M14, in the experiment with NCI-H522, in the experiment with SNB-19, in the experiment with MOLT-4, with BT-549 and with SF-268 was > 100 µM (inactive) throughout. The GI50 in the experiment with ACHN was 79.8 µM (inactive); in the experiment with HOP-92, > 100 µM (inactive); in the experiment on HCT-15, above 100 µM; in the experiment on HL-60 it was > 100 µM (inactive); in the experiment on DU-145 it was > 100 µM (inactive).

As for `CC(=O)Nc1ccc(C(=O)NN2C(=O)C(Cl)C2c2cc(Br)ccc2O)cc1` (stereo not drawn), the GI50 in the experiment on PC-3 is 3.88 µM (inactive); in the experiment on IGROV-1, 17.6 µM (inactive); in the experiment with MDA-MB-435, 7.69 µM (inactive); with NCI/ADR-RES, 3.65 µM (inactive); in the experiment with OVCAR-8 it was 6.52 µM (inactive); in the experiment with EKVX, 28.8 µM (inactive). Moreover, the GI50 in the experiment with M14 is 4.54 µM (inactive); in the experiment with NCI-H522 it was 6.55 µM (inactive); with SNB-19, 7.62 µM (inactive); in the experiment with CCRF-CEM, 1.85 µM (inactive); in the experiment with MOLT-4, 3.37 µM (inactive); with BT-549, 14.8 µM (inactive). The GI50 in the experiment with K562 was 6.41 µM (inactive); with SF-268, 1.91 µM (inactive); in the experiment with ACHN it was 2.99 µM (inactive); in the experiment with HOP-92, 15.2 µM (inactive); in the experiment with HCT-15, 2.14 µM; in the experiment on HL-60 it was 2.71 µM (inactive). The GI50 in the experiment on DU-145 was 6.14 µM (inactive).

`CCC12CCCN(Cc3ccccc3)C1c1c([nH]c3ccccc13)C(C(=O)OC)C2` (stereo not drawn): the GI50 with PC-3, in the experiment with IGROV-1, with MDA-MB-435, with NCI/ADR-RES, in the experiment with OVCAR-8 and in the experiment on M14 was > 10 µM (inactive) each time. Moreover, the GI50 with NCI-H522 is > 10 µM (inactive); with SNB-19, > 10 µM (inactive); with CCRF-CEM, > 10 µM (inactive); with MOLT-4, 5.85 µM (inactive); with BT-549 it was > 10 µM (inactive); in the experiment with K562 it was > 10 µM (inactive). Further, the GI50 in the experiment on SF-268 is > 10 µM (inactive); with ACHN, > 10 µM (inactive); in the experiment with HOP-92 it was > 10 µM (inactive); in the experiment with HCT-15 it was above 10 µM; in the experiment on HL-60, 7.83 µM (inactive); in the experiment on DU-145 it was > 10 µM (inactive).

Turning to `CCc1cccc(C(C)C)c1NC(=O)C(=O)C1C(=O)Nc2ccccc2[S+]1[O-]` (stereo not drawn), the GI50 in the experiment with PC-3 was > 100 µM (inactive); with IGROV-1, 38.9 µM (inactive); in the experiment on MDA-MB-435, > 100 µM (inactive); in the experiment on NCI/ADR-RES it was > 100 µM (inactive); in the experiment on OVCAR-8 it was > 100 µM (inactive); in the experiment on EKVX, 57.8 µM (inactive). In addition, the GI50 with M14 is > 100 µM (inactive); in the experiment with NCI-H522 it was > 100 µM (inactive); in the experiment with SNB-19, > 100 µM (inactive); with RXF 393, 56.1 µM (inactive); in the experiment with CCRF-CEM it was > 100 µM (inactive); in the experiment on MOLT-4, > 100 µM (inactive). The GI50 was > 100 µM (inactive) in the experiment on BT-549; > 100 µM (inactive) with SF-268; > 100 µM (inactive) with ACHN; > 100 µM (inactive) with HOP-92; above 100 µM with HCT-15; > 100 µM (inactive) with DU-145.

Regarding `CCc1cccc(CC)c1NC(=O)C(C#N)C1=C(Cl)C(=O)c2ccccc2C1=O` (stereo not drawn), the GI50 in the experiment with PC-3 is 13 µM (inactive); in the experiment with IGROV-1, 17.8 µM (inactive); in the experiment with MDA-MB-435, 14.5 µM (inactive); in the experiment with OVCAR-8 it was 19.8 µM (inactive); in the experiment on EKVX it was 21.1 µM (inactive); with M14 it was 16.8 µM (inactive). The GI50 with NCI-H522 was 8.55 µM (inactive); in the experiment on SNB-19, 18.1 µM (inactive); in the experiment on RXF 393, 16.3 µM (inactive); in the experiment on CCRF-CEM, 1.33 µM (inactive); in the experiment on MOLT-4, 1.53 µM (inactive); in the experiment on BT-549, 12.4 µM (inactive). The GI50 in the experiment on K562 is 2.33 µM (inactive); with SF-268 it was 16.6 µM (inactive); in the experiment on ACHN, 16.4 µM (inactive); in the experiment with HOP-92 it was 2.96 µM (inactive); in the experiment on HCT-15 it was 20.6 µM; in the experiment with HL-60 it was 1.3 µM (inactive). Besides, the GI50 in the experiment with DU-145 is 16.8 µM (inactive).

Consider `Cc1cccc2c1c(=O)c1c(O)c3c(cc1n2C)OC(C)(C)C=C3`, for which the GI50 in the experiment with PC-3, in the experiment with IGROV-1, in the experiment with MDA-MB-435, in the experiment on NCI/ADR-RES, with OVCAR-8 and in the experiment on EKVX was > 10 µM (inactive) in each case. For the same compound, the GI50 in the experiment on M14, with NCI-H522, in the experiment on SNB-19, in the experiment with RXF 393, in the experiment with CCRF-CEM and in the experiment on MOLT-4 was > 10 µM (inactive) throughout. The GI50 in the experiment with BT-549 is > 10 µM (inactive); in the experiment on K562, > 10 µM (inactive); with SF-268, > 10 µM (inactive); with ACHN, > 10 µM (inactive); in the experiment with HCT-15, above 10 µM; in the experiment on HL-60, > 10 µM (inactive). In the experiment on DU-145, the GI50 is > 10 µM (inactive).
